From patent US11413278B2, “Compounds and methods for promoting stress resistance” (priority 2015, dated 2022) come the findings set out here.

Read-outs that look alike come from different tables or passages of the source.

Data set [1] relates to WI-38 cells. Description: Propidium iodide (PI) cell-death imaging upon H2O2 stress. In kind it is cell-based, human. The settings on record: for Assay 7: H2O2-resistant, at 10 uM, validated by propidium iodide (PI) cell-death imaging: w/H2O2, 3 hrs/4 hrs/5 hrs, YES/NO; for cytotoxicity at 10 µM: Homo sapiens, WI-38.
Data set [2] addresses T1, human PARP1 (Homo sapiens, UniProt P09874).
T1 construct: purchased Trevigen
Nature of the data set: PARP inhibitor assay (HT Fluorescent Homogeneous PARP Inhibition Assay Kit). In kind it is biochemical. The note with it: score. The method, boiled down: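 Human PARP1 with NAD and activated DNA, compounds at 10 μM final, 30 min at room temperature in dark. Resazurin/diaphorase cycling mix then added for 1 hr in dark before stop buffer; fluorescent homogeneous kit read-out.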

In data set [3] the test system is NRF2. Nature of the data set: in vitro. Type of data set: cell-based, human.
In data set [4] the test system is LC3A/B puncta. Description: Autophagy induction analysis (LC3A/B puncta immuno-staining). In kind it is cell-based, human. In short, it runs like this:
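WI-38 cells were treated with compounds for 24 hrs, then immunostained for LC3A/B (overnight, 4° C) with DAPI counterstain and imaged by high-content microscopy. Experiment 1 used total puncta intensity. Experiment 2 used LAMP2-colocalized (lysosomal) puncta. Intensity was normalized to nuclei count.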

The nature of data set [5]: Summary score for characterization of 38 core set hits. The note with it: for D = Triple resistant: 2-point score, multiplex resistance (cadmium, MMS, H2O2); for S = Sum of Negative scores: human; for C = H2O2- & Cd-resistant: score, resistance to both H2O2 and cadmium. The method, boiled down: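 Composite score. 2 pts each: multiplex stress resistance, FOXO3/NRF2 activation, mTOR down-regulation. Worm lifespan (4–6 independent trials): 0 = no obvious effect, 1 = extension in 2 trials, 2 = extension in >2 trials. −1 for DNA damage and/or cytotoxicity in cultured human cells.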

In data set [6] the test system is WI-38 cells. The settings on record: for Assay 1: H2O2-resistant: YES/NO, if NO, possibly due to repeated freezing/thawing of stocks.
Where [7] appears, read: H2O2 3 hrs, 10 uM, n = 6, negative control 5.44% ± 0.79%, read-out: Percentage of propidium iodide-positive dead cells (under H2O2 stress treatment), 3 hrs.
[8] abbreviates: H2O2 4 hrs, 10 uM, n = 6, negative control 16.81% ± 1.42%, read-out: Percentage of propidium iodide-positive dead cells (under H2O2 stress treatment), 4 hrs.
Setting [9] is: H2O2 5 hrs, 10 uM, n = 6, negative control 22.50% ± 1.53%, read-out: Percentage of propidium iodide-positive dead cells (under H2O2 stress treatment), 5 hrs.
The mark [10] stands for this setting: pre-treatment at 10 uM, 3.5 hours of H2O2, DMSO control 27.4% ± 6.5%, */**/*** = reduced by one/two/three standard deviations, read-out: Percentage of propidium iodide-positive dead cells (under H2O2 stress treatment), at 10 uM.
Setting [11] is: 10 uM, with H2O2, NRF2 knockdown in WI-38 cells, YES = resistance reduced by at least 50%, partial = 25% to 50%.
The mark [12] stands for this setting: WI-38 cells, 10 μM, (*) = compromised ability to protect cells from H2O2, could be due to stability issue.
Setting [13] is: asterisks indicate the loss of the ability to protect cells from H2O2 over time.
Where [14] appears, read: derived from dose response curves, 0.6-20 uM, H2O2-resistance of WI-38 cells.
The mark [15] stands for this setting: read-out: Est. ED50, dose response 0.6-20 μM, H2O2-resistance.

T1 sequence (P09874 whole entry): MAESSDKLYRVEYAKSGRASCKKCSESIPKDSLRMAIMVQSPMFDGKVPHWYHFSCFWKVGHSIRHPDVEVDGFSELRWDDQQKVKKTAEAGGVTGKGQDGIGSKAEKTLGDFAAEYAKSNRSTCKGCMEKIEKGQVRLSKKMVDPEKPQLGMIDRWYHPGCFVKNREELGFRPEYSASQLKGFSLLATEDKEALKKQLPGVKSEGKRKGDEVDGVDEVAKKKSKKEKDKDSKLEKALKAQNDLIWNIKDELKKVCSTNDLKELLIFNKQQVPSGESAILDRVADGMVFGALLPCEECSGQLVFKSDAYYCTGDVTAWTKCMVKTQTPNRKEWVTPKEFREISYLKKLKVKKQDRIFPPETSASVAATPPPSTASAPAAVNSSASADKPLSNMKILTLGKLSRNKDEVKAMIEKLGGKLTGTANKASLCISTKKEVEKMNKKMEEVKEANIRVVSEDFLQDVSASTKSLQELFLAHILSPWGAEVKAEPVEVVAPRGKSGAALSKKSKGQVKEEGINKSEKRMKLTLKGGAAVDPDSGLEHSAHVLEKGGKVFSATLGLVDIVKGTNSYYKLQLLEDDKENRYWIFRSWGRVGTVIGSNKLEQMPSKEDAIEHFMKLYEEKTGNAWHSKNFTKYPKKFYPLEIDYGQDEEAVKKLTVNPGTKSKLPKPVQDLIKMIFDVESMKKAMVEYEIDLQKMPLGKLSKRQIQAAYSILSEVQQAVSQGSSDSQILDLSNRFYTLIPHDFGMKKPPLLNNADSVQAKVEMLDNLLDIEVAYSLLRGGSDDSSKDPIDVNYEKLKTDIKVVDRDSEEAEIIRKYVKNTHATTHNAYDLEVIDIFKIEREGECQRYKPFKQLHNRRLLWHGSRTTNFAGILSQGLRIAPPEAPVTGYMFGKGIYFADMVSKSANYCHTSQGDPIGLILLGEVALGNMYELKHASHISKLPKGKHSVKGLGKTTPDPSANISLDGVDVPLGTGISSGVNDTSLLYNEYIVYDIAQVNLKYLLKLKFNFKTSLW

As for `COc1cccc(/C=C2\CN(C)C/C(=C\c3cccc(OC)c3OC)C2=O)c1OC` [O23], in data set [1] (10 uM), the “Assay 7: H2O2-resistant, at 10 uM, validated by propidium iodide (PI) cell-death imaging” value is on record as “YES”. Besides, the cytotoxicity at 10 µM in data set [1] (setting [7]) was 5.65%; in data set [1] (setting [8]), 4.76%; in data set [1] (setting [9]) it was 8%; in data set [1] (setting [10]) it was 10.2%. For the same compound, the “L = PARP inhibition” value in data set [2] was determined as 0. Besides, the “Survival of NRF2 siRNA-transfected cells in the absence of H2O2” value in data set [3] is listed as “could reduce the survival”. Also, the “NRF2-dependency for H2O2-resistance, at 10 uM - with H2O2, 1st experiment” value in data set [3] (10 uM, experiment 1 (1st), with H2O2) is given as 1st, YES;. In addition, the “NRF2-dependency for H2O2-resistance, at 10 uM - with H2O2, 2nd experiment” value in data set [3] (10 uM, experiment 2 (2nd), with H2O2) is 2nd, YES. Besides, the “NRF2-dependency for H2O2-resistance, 1st experiment” value in data set [3] (setting [11]) is “YES;”. Moreover, the “NRF2-dependency for H2O2-resistance, 2nd experiment” value in data set [3] (setting [11]) is “YES”. In addition, the “Assay 17: NRF2-dependency for H2O2-resistance” value in data set [3] (10 uM, YES/NO) was “YES”. For the same compound, the “NRF2-dependency of H2O2-resistance (NRF2 siRNA knockdown)” value in data set [3] (at least 2 of 3 independent experiments) is recorded as “significantly attenuate”. The “viability of non-stressed cells, reduced by” value in data set [3] (human, 24 h, 10 uM) is “by 40%)”. In addition, the “J = NRF2-dependency for H2O2-resistance” value in data set [3] (score) and in data set [3] (summary score) was 1 throughout. Besides, the “Assay 15: Potential autophagy induction by LC3A/B puncta assays” value in data set [4] (10 uM & 20 uM, YES/NO) is “YES”. Further, the “H = Potential Autophagy Induction” value in data set [4] (score) and in data set [4] (summary score) was 1 in each case. Besides, in data set [5], the “D = Triple resistant” value turned out to be 0. In data set [5], the “S = Sum of Negative scores” value was found to be 1. Also, the “C = H2O2- & Cd-resistant” value in data set [5] stood at 0. The H2O2-resistant result in data set [6] (setting [12]) and in data set [6] (setting [13]) was “YES (*)” throughout. In addition, the “No H2O2 stress treatment, at 10 uM (fold change)” value in data set [6] (WI-38 cells, no H2O2 stress, 10 uM, normalized ATP measurement) stood at 0.76 fold change. Besides, the “Assay 1: H2O2-resistant” value in data set [6] is reported as “YES”. Besides, the EC50 in data set [6] (setting [14]) and in data set [6] (setting [15]) was 4.9 µM in each case.

With `Oc1ccccc1-c1noc(-c2ccccc2O)n1` [O27], in data set [1] (10 uM), the “Assay 7: H2O2-resistant, at 10 uM, validated by propidium iodide (PI) cell-death imaging” value is “YES”. In addition, the cytotoxicity at 10 µM in data set [1] (setting [7]) was determined as 0.55%; in data set [1] (setting [8]) it was 0.82%; in data set [1] (setting [9]), 1.07%; in data set [1] (setting [10]), 0.5%. The “L = PARP inhibition” value in data set [2] is recorded as 0. For the same compound, the “J = NRF2-dependency for H2O2-resistance” value in data set [3] (score) and in data set [3] (summary score) was 0 each time. The “H = Potential Autophagy Induction” value in data set [4] (score) and in data set [4] (summary score) was 0 each time. Also, in data set [5], the “D = Triple resistant” value is reported as 0. Also, the “S = Sum of Negative scores” value in data set [5] was 2. Besides, the “C = H2O2- & Cd-resistant” value in data set [5] is 1. The H2O2-resistant entry in data set [6] (setting [12]) and in data set [6] (setting [13]) was “YES” each time. Besides, in data set [6], the “Assay 1: H2O2-resistant” value was “YES”. The EC50 in data set [6] (setting [14]) and in data set [6] (setting [15]) was 12.7 µM each time.
